According to patent EP1674096A2, “Hypoglycemics comprising organic zinc (II) complexes” (Japan Science and Technology Agency, priority 1999, dated 2001):

Legend:
rat adipocyte = test: Inhibition of free fatty acid (FFA) release from epinephrine-stimulated rat adipocytes; assay type: cell-based; details: concentration inhibiting release of the fatty acid by 50 %, relative values with IC50 of VOSO4 regarded as 1.00 mM, 10^-5 M epinephrine, 3 hours at 37°C, glycine complex in aqueous solution, others in physiological saline
Experimental: A pharmacological test was conducted as described below in accordance with the method reported in Biol.Pharm.Bull., 18, 719-725 (1995).
A male Wistar rat weighing 200 g was exsanguinated under an anesthesia with ether, and a fat cell mass was isolated from a fat tissue around an epididymis according to the method of Road Bell (J. Biol. Chem. , 239, 375(1964)). The fat cell mass was cut into pieces using scissors, and digested for 1 hour at 37°C in a KRB buffer solution (5 mM Glucose, 120 mM NaCl, 1.27 mM CaCl2, 1.2 mM MgSO4, 4.75 mM KCl, 1.2 mM KH2PO4 and 24 […]; pH=7.4) supplemented with 20 mg of bovine serum albumin (BSA) and 2 mg of collagenase per ml. The fat cells were sieved through a nylon mesh (250 µm) whereby being made free from any undigested tissue, washed three times with the buffer similar to that described above except for containing no collagenase, and adjusted at 2.5 x 10^6 cells/ml.
Then the reaction mixture was combined with 10^-5 M epinephrine and the resultant solution was incubated for 3 hours at 37°C. The reaction was quenched by cooling with ice, and the mixture was centrifuged for 10 minutes at 3000 rpm. The extracellular solution was examined for its free fatty acid (FFA) level using an NEFA kit whereby calculating an IC50 value.

KK-A^y mice [1] = test: Body weight change in KK-A^y mice under daily intraperitoneal treatment (index of side effects); assay type: in vivo; details: intraperitoneally once a day, 4.5 or 2.5 mg Zn/kg depending on blood glucose, 13 to 15 days (Figures 9 to 11)
Experimental: (§1) In the control group, 0.5 ml of the acacia solution was given.

KK-A^y mice [2] = test: Glucose tolerance test in KK-A^y mice after 15 days of treatment; assay type: in vivo; details: KK-A^y mice fasted for 13 hours, glucose orally at 1 g/kg; compared with control mice (Figure 12)
Experimental: 8-Week old KK-A^y mice were treated intraperitoneally once a day with a 5 % acacia solution in a control group (n=6) or with Zn(PA)2 (n=6), Zn(maltol)2 (n=7) or Zn(Cys-OMe)2 (n=6) dissolved in a 5 % acacia solution in the complex treatment groups.
as §1
(glucose tolerance test: A mouse was fasted for 13 hours and then administered orally with glucose at 1 g/kg, and then the blood glucose levels were determined at certain time intervals.)

KK-A^y mice [3] = test: Glucose tolerance test in KK-A^y mice after 3 days of treatment; assay type: in vivo; details: 4 mg/kg once a day for 3 days, then fasted for 14 hours, compared with mice not receiving the complex (Figure 3)
Experimental: Subsequently, KK-A^y mice as type II diabetes model animals and humans were subjected to the glucose tolerance tests to obtain blood glucose curves, which are shown in Figure 3 and Figure 4.
In Figure 3, (a) denotes a blood glucose curve obtained in a glucose tolerance test in mice each of which received 4 mg/kg of Zn(PA)2(H2O)2 as an inventive zinc (II) complex once a day for 3 days and then fasted for 14 hours, and (b) denotes one in a control group in which the mice were not treated with the complex. In Figure 4, (a) denotes a blood glucose curve obtained in a glucose tolerance test in diabetes patients, while (b) denotes one in normal healthy volunteers.

[4] = Glucose +, 6-methyl-picolinic acid and pyridine-2-acetic acid complexes in DMSO

Compound | IC50 (rat adipocyte; Glucose -) [mM] | IC50 (rat adipocyte; [4]) [mM] | other results
O=C(O)C1CSCN1 [Zn(L-4Tia)2] | 1.2 | – | –
bis(3-hydroxy-2-methyl-4-pyronate) zinc (II) complex [Zn(maltol)2/2.6H2O] | – | 0.57 | body weight change (weight loss as an index of side effects) (KK-A^y mice [1]): immediately after the treatment with the complex, the body weight was recovered in response to the reduction in the blood glucose and the reduction in the dose; glucose tolerance test after the administration of each complex for 15 days (KK-A^y mice [2]): an amelioration of the diabetes conditions when compared with the diabetes mice (control mice)
trans-bis(glycine) zinc (II) complex [Zn(Gly)2/1.0H2O] | 0.84 | 0.63 | –
bis(2-mercaptopyridine-N-oxide) zinc (II) complex [Zn(MPNO)2/0.3H2O] | 0.013 | 0.011 | –
O=C(O)C1CSCN1 [Zn(D-4Tia)2] | 1.28 | – | –
COC(=O)C(N)C[S-].COC(=O)C(N)C[S-].[Zn+2] [Zn(Cys-OMe)2, bis(L-cysteine methyl ester) zinc (II) complex] | – | – | body weight change (weight loss as an index of side effects) (KK-A^y mice [1]): no increase or decrease in the body weight was observed
bis(pyrrolidine-N-dithiocarbamate) zinc (II) complex [Zn(PCD)2] | 0.049 | – | –
Cc1cccc(C(=O)[O][Zn][O]C(=O)c2cccc(C)n2)n1 [Zn(6MPA)2(H2O), bis(6-methyl-picolinate)zinc(II)complex] | – | 0.39 | –
O=c1cc(CO)occ1O [Zn(Koj)2] | 0.91 | – | –
O=C(O)c1cccc(Br)n1 [Zn(6BPA)2] | 0.45 | – | –
O=C([O-])c1cccnc1.O=C([O-])c1cccnc1.[Zn+2] [Zn(Nic)2/4H2O] | – | 0.82 | –
NC(=O)CC[C@H](N)C(=O)O [Zn(Gln)2] | – | 0.84 | –
O=S(=O)([O-])[O-].[O]=[V+2] [VOSO4/5.4 or 2.3H2O, Oxovanadium sulfate, reference compound] | 1 | 1 | –
cis-bis(threonine) zinc (II) complex [cis-[Zn(Thr)2(H2O)2]] | 1.3 | – | –
Cc1cccnc1C(=O)O [Zn(3MPA)2] | 0.42 | – | –
O.O.O=C([O-])c1ccccn1.O=C([O-])c1ccccn1.[Zn+2] [trans-[Zn(PA)2H2O)2], trans-bis(picolinate) zinc (II) complex] | – | – | blood glucose curve in glucose tolerance test (KK-A^y mice [3]): a reduced peak level of the blood glucose followed by a rapid decrease, as compared with the mice not receiving the complex and then recovered its almost normal blood glucose level after 180 minutes; body weight change (weight loss as an index of side effects) (KK-A^y mice [1]): not observed in most of the animals; glucose tolerance test after the administration of each complex for 15 days (KK-A^y mice [2]): an amelioration of the diabetes conditions when compared with the diabetes mice (control mice)
